Laboratory results as given in patent US20250171438A1 (Agios Pharmaceuticals, Inc., priority 2022, published 2025).

Target: T1, human PAH with the R408W mutation (Homo sapiens, UniProt P00439, R408W)
T1 construct: expressed in transfected cells
T1 sequence (P00439 1-452 R408W): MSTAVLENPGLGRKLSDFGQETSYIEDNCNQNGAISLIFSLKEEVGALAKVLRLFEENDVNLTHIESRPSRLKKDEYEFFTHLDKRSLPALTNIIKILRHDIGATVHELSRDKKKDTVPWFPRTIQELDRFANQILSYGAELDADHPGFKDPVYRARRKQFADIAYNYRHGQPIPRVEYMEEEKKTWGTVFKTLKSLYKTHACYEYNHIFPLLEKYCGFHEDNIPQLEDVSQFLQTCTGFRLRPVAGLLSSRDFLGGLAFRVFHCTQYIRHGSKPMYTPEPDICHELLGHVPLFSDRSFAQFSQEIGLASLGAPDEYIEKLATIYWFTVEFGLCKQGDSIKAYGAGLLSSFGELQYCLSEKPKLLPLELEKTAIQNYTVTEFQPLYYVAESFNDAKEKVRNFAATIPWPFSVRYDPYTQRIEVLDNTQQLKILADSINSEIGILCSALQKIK
Assay: Cell Based Phenylalanine Flux Assay
Details: A375 cells expressing human R408W PAH; 24 hrs compound incubation; 13C-Tyrosine by LC-MS; average where tested multiple times; read-out: AC50

AC50 [nM]	Compound
1000 to 5000	Cn1cc(C(F)(F)C(=O)N2CCc3[nH]cnc3[C@@H]2c2nc3ccccc3s2)cn1 [Example 1556, (R)-1-(4-(benzo[d]thiazol-2-yl)-6,7-dihydro-1H-imidazo[4,5-c]pyridin-5(4H)-yl)-2,2-difluoro-2-(1-methyl-1H-pyrazol-4-yl)ethanone]
500 to 1000	O=C(c1oc(-c2ccccn2)nc1C1CC1)N1CCc2[nH]cnc2[C@@H]1c1nc2cccc(F)c2s1 [Example 1557, (R)-(4-cyclopropyl-2-(pyridin-2-yl)oxazol-5-yl)(4-(7-fluorobenzo[d]thiazol-2-yl)-6,7-dihydro-1H-imidazo[4,5-c]pyridin-5(4H)-yl)methanone]
< 500	O=C(c1oc(-c2ccccn2)nc1C1CC1)N1CCc2[nH]cnc2[C@H]1c1nc2cccc(F)c2s1 [Example 1558]
< 500	O=C(c1oc(NC2CC2)nc1C(F)(F)F)N1CCc2[nH]cnc2[C@H]1c1nc2ccccc2s1 [Example 1559]
< 500	O=C(c1oc(NC2CC2)nc1C(F)(F)F)N1CCc2[nH]cnc2[C@@H]1c1nc2ccccc2s1 [Example 1560, (R)-(4-(benzo[d]thiazol-2-yl)-6,7-dihydro-1H-imidazo[4,5-c]pyridin-5(4H)-yl)(2-(cyclopropylamino)-4-(trifluoromethyl)oxazol-5-yl)methanone]
< 500	O=C(c1oc(C2(O)CCC2)nc1C(F)(F)F)N1CCc2[nH]cnc2[C@H]1c1nc2ccccc2s1 [Example 1565]
< 500	O=C(c1oc(C2(O)CCC2)nc1C(F)(F)F)N1CCc2[nH]cnc2[C@@H]1c1nc2ccccc2s1 [Example 1566, (R)-(4-(benzo[d]thiazol-2-yl)-6,7-dihydro-1H-imidazo[4,5-c]pyridin-5(4H)-yl)(2-(1-hydroxycyclobutyl)-4-(trifluoromethyl)oxazol-5-yl)methanone]
500 to 1000	O=C(c1oc(/C=C/C2CC2)nc1C(F)(F)F)N1CCc2[nH]cnc2[C@H]1c1nc2ccccc2s1 [Example 1567]
1000 to 5000	O=C(c1oc(/C=C/C2CC2)nc1C(F)(F)F)N1CCc2[nH]cnc2[C@@H]1c1nc2ccccc2s1 [Example 1568, (R,E)-(4-(benzo[d]thiazol-2-yl)-6,7-dihydro-1H-imidazo[4,5-c]pyridin-5(4H)-yl)(2-(2-cyclopropylvinyl)-4-(trifluoromethyl)oxazol-5-yl)methanone]
< 500	CC(C)(O)/C=C/c1nc(C(F)(F)F)c(C(=O)N2CCc3[nH]cnc3[C@H]2c2nc3ccccc3s2)o1 [Example 1569]
< 500	CC(C)(O)/C=C/c1nc(C(F)(F)F)c(C(=O)N2CCc3[nH]cnc3[C@@H]2c2nc3ccccc3s2)o1 [Example 1570, (R,E)-(4-(benzo[d]thiazol-2-yl)-6,7-dihydro-1H-imidazo[4,5-c]pyridin-5(4H)-yl)(2-(3-hydroxy-3-methylbut-1-en-1-yl)-4-(trifluoromethyl)oxazol-5-yl)methanone]
< 500	O=C(c1oc(C2CC2)nc1C(F)F)N1CCc2[nH]cnc2[C@H]1c1nc2c(F)cccc2s1 [Example 1571, (S)-(2-cyclopropyl-4-(difluoromethyl)oxazol-5-yl)(4-(4-fluorobenzo[d]thiazol-2-yl)-6,7-dihydro-1H-imidazo[4,5-c]pyridin-5(4H)-yl)methanone]
500 to 1000	O=C(c1oc(C2CC2)nc1C(F)F)N1CCc2[nH]cnc2[C@@H]1c1nc2c(F)cccc2s1 [Example 1572, (R)-(2-cyclopropyl-4-(difluoromethyl)oxazol-5-yl)(4-(4-fluorobenzo[d]thiazol-2-yl)-6,7-dihydro-1H-imidazo[4,5-c]pyridin-5(4H)-yl)methanone]
< 500	CN1CCN(c2nc(C(F)(F)F)c(C(=O)N3CCc4[nH]cnc4[C@H]3c3nc4ccccc4s3)o2)CC1 [Example 1573]
< 500	CN1CCN(c2nc(C(F)(F)F)c(C(=O)N3CCc4[nH]cnc4[C@@H]3c3nc4ccccc4s3)o2)CC1 [Example 1574, (R)-(4-(benzo[d]thiazol-2-yl)-6,7-dihydro-1H-imidazo[4,5-c]pyridin-5(4H)-yl)(2-(4-methylpiperazin-1-yl)-4-(trifluoromethyl)oxazol-5-yl)methanone]
< 500	O=C(c1oc(CCN2CC(F)C2)nc1C(F)(F)F)N1CCc2[nH]cnc2[C@H]1c1nc2ccccc2s1 [Example 1575]
< 500	O=C(c1oc(CCN2CC(F)C2)nc1C(F)(F)F)N1CCc2[nH]cnc2[C@@H]1c1nc2ccccc2s1 [Example 1576, (R)-(4-(benzo[d]thiazol-2-yl)-6,7-dihydro-1H-imidazo[4,5-c]pyridin-5(4H)-yl)(2-(2-(3-fluoroazetidin-1-yl)ethyl)-4-(trifluoromethyl)oxazol-5-yl)methanone]
> 5000	Cc1ncoc1C(=O)N1CC2(CC2)c2[nH]cnc2[C@@H]1c1nc2ccccc2s1 [Example 1578, (R)-(4′-(benzo[d]thiazol-2-yl)spiro[cyclopropane-1,7′-imidazo[4,5-c]pyridin]-5′(1′H,4′H,6′H)-yl)(4-methyloxazol-5-yl)methanone]

AC50 [nM]	Compound
< 500	O=C(c1oc(CCC2CC2)nc1C(F)(F)F)N1CCc2[nH]cnc2[C@H]1c1nc2ccccc2s1 [Example 1579]
< 500	O=C(c1oc(CCC2CC2)nc1C(F)(F)F)N1CCc2[nH]cnc2[C@@H]1c1nc2ccccc2s1 [Example 1580, (R)-(4-(benzo[d]thiazol-2-yl)-6,7-dihydro-1H-imidazo[4,5-c]pyridin-5(4H)-yl)(2-(2-cyclopropylethyl)-4-(trifluoromethyl)oxazol-5-yl)methanone]
< 500	CN(C)CCc1nc(C(F)(F)F)c(C(=O)N2CCc3[nH]cnc3[C@H]2c2nc3ccccc3s2)o1 [Example 1581]
< 500	CN(C)CCc1nc(C(F)(F)F)c(C(=O)N2CCc3[nH]cnc3[C@@H]2c2nc3ccccc3s2)o1 [Example 1582, (R)-(4-(benzo[d]thiazol-2-yl)-6,7-dihydro-1H-imidazo[4,5-c]pyridin-5(4H)-yl)(2-(2-(dimethylamino)ethyl)-4-(trifluoromethyl)oxazol-5-yl)methanone]
< 500	N#Cc1ncoc1C(=O)N1CCc2[nH]cnc2[C@H]1c1nc2ccccc2s1 [Example 1583, (S)-5-(4-(benzo[d]thiazol-2-yl)-4,5,6,7-tetrahydro-1H-imidazo[4,5-c]pyridine-5-carbonyl)oxazole-4-carbonitrile]
> 5000	N#Cc1ncoc1C(=O)N1CCc2[nH]cnc2[C@@H]1c1nc2ccccc2s1 [Example 1584, (R)-5-(4-(benzo[d]thiazol-2-yl)-4,5,6,7-tetrahydro-1H-imidazo[4,5-c]pyridine-5-carbonyl)oxazole-4-carbonitrile]
500 to 1000	O=C(c1nnc(N2CCOCC2)o1)N1CCc2[nH]cnc2[C@H]1c1nc2ccccc2s1 [Example 1585]
1000 to 5000	O=C(c1nnc(N2CCOCC2)o1)N1CCc2[nH]cnc2[C@@H]1c1nc2ccccc2s1 [Example 1586, (R)-(4-(benzo[d]thiazol-2-yl)-6,7-dihydro-1H-imidazo[4,5-c]pyridin-5(4H)-yl)(5-morpholino-1,3,4-oxadiazol-2-yl)methanone]
500 to 1000	C[C@@H]1CN(C(=O)c2nnc(-c3ccccn3)o2)[C@H](c2nc3ccccc3s2)c2nc[nH]c21 [Example 1588, ((4S,7R)-4-(benzo[d]thiazol-2-yl)-7-methyl-6,7-dihydro-1H-imidazo[4,5-c]pyridin-5(4H)-yl)(5-(pyridin-2-yl)-1,3,4-oxadiazol-2-yl)methanone]
500 to 1000	C[C@H]1CN(C(=O)c2nnc(-c3ccccn3)o2)[C@H](c2nc3ccccc3s2)c2nc[nH]c21 [Example 1589, ((4S,7S)-4-(benzo[d]thiazol-2-yl)-7-methyl-6,7-dihydro-1H-imidazo[4,5-c]pyridin-5(4H)-yl)(5-(pyridin-2-yl)-1,3,4-oxadiazol-2-yl)methanone]
1000 to 5000	C[C@H]1CN(C(=O)c2nnc(-c3ccccn3)o2)[C@@H](c2nc3ccccc3s2)c2nc[nH]c21 [Example 1590, ((4R,7S)-4-(benzo[d]thiazol-2-yl)-7-methyl-6,7-dihydro-1H-imidazo[4,5-c]pyridin-5(4H)-yl)(5-(pyridin-2-yl)-1,3,4-oxadiazol-2-yl)methanone]
< 500	O=C(c1nnc(N2CCC(F)CC2)o1)N1CCc2[nH]cnc2[C@H]1c1nc2ccccc2s1 [Example 1591]
1000 to 5000	O=C(c1nnc(N2CCC(F)CC2)o1)N1CCc2[nH]cnc2[C@@H]1c1nc2ccccc2s1 [Example 1592, (R)-(4-(benzo[d]thiazol-2-yl)-6,7-dihydro-1H-imidazo[4,5-c]pyridin-5(4H)-yl)(5-(4-fluoropiperidin-1-yl)-1,3,4-oxadiazol-2-yl)methanone]
500 to 1000	O=C(c1nnc(NC2CC2)o1)N1CCc2[nH]cnc2[C@H]1c1nc2ccccc2s1 [Example 1593]
1000 to 5000	O=C(c1nnc(NC2CC2)o1)N1CCc2[nH]cnc2[C@@H]1c1nc2ccccc2s1 [Example 1594, (R)-(4-(benzo[d]thiazol-2-yl)-6,7-dihydro-1H-imidazo[4,5-c]pyridin-5(4H)-yl)(5-(cyclopropylamino)-1,3,4-oxadiazol-2-yl)methanone]
< 500	O=C(c1oc(NC2CC2)nc1C(F)(F)F)N1CCc2[nH]cnc2[C@H]1c1nc2c(F)cccc2s1 [Example 1595]
< 500	O=C(c1oc(NC2CC2)nc1C(F)(F)F)N1CCc2[nH]cnc2[C@@H]1c1nc2c(F)cccc2s1 [Example 1596, (R)-(2-(cyclopropylamino)-4-(trifluoromethyl)oxazol-5-yl)(4-(4-fluorobenzo[d]thiazol-2-yl)-6,7-dihydro-1H-imidazo[4,5-c]pyridin-5(4H)-yl)methanone]
